Measurements published in patent US20040087798A1, “Novel amide compounds” (priority 2000, published 2004).

Target: T1, 5-HT2c binding site (Rattus norvegicus, UniProt P08909)
T1 construct: ability to displace [^3H]-mesulergine in the rat prefrontal cortex; from tissue; host or cells: rat prefrontal cortex membrane suspension
T1 sequence (P08909 33-460): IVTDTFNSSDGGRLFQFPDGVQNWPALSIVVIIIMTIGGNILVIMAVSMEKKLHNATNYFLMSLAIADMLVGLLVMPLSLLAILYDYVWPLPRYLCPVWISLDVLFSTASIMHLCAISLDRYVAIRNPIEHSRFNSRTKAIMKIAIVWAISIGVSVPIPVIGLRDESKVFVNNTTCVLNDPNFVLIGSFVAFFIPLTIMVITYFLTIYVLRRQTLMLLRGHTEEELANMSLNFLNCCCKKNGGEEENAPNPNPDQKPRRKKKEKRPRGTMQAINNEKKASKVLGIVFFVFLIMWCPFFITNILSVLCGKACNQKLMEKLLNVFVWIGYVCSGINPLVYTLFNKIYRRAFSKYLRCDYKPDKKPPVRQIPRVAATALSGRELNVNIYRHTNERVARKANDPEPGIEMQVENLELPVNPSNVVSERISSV
Experiment: [3H]-mesulergine binding
Settings: test drug 10^−6M; displacement of [3H]-mesulergine (1 nM) in rat prefrontal cortex membranes; 30 nM spiperone present
Experimental: [^3H]-mesulergine Binding
The affinity of test drugs for the 5-HT2c binding site can be determined by assessing their ability to displace [^3H]-mesulergine in the rat prefrontal cortex. The method employed was similar to that of Pazos et al, 1984.
The membrane suspension (500 μl) was incubated with [^3H]-mesulergine (1 nM) in Tris hydrochloric acid buffer solution (pH 7.4) containing calcium chloride 4 mM and ascorbic acid 0.1% at 37° C. for 30 minutes. Non-specific binding was measured in the presence of mianserin (1 μM). 30 nM spiperone was used to prevent binding to 5-HT2A sites. Test drugs (10^−6M) were added in a volume of 100 μl. The total assay volume was 1000 μl. Incubation was stopped by rapid filtration using a Brandel cell harvester and radioactivity measured by scintillation counting.

SMILES	inhibition at 1 µM [%]
O=C(C/C=C/c1ccccc1)Nc1cccc(-n2ccnc2)c1 [Compound (a), (3E)-N-[3-(imidazol-1-yl)phenyl]-4-phenyl-3-butenamide]	82

System: not given
Experiment: not given
Settings: not given

SMILES	melting point [°C]
O=C(C/C=C/c1ccccc1)Nc1cccc(-n2ccnc2)c1 [Compound (a), (3E)-N-[3-(imidazol-1-yl)phenyl]-4-phenyl-3-butenamide]	130 to 133
N=C(Nc1cccc(NC(=O)/C=C/c2ccccc2Cl)c1)c1ccccc1 [Example 54, (2E)-N-[3-(iminobenzylamino)phenyl]-3-(2-chlorophenyl)-2-propenamide]	262 to 264
N=C(Nc1cc(Cl)cc(NC(=O)/C=C/c2ccccc2C(F)(F)F)c1)c1ccsc1 [Example 56, (2E)-N-[3-chloro-5-[[imino(3-thienyl)methyl]amino]phenyl]-3-[2-(trifluoromethyl)phenyl]-2-propenamide]	121 to 123
O=C(C=Cc1ccccc1Cl)Nc1cccc(-c2nc3ccccc3[nH]2)c1 [Example 58, N-[3-(1H-benzimidazol-2-yl)phenyl]-3-(2-chlorophenyl)-2-propenamide]	152 to 154
Cc1ncccc1Oc1ccc(C(=N)Nc2cc(Cl)cc(NC(=O)C=Cc3ccccc3Cl)c2)cc1 [Example 59, N-[3-chloro-5-[[imino[4-[(2-methyl-3-pyridyl)oxy]phenyl]methyl]amino]phenyl]-3-(2-chlorophenyl)-2-propenamide]	105 to 107
N=C(Nc1cccc(NC(=O)/C=C/c2ccccc2C(F)(F)F)c1F)c1ccccc1 [Example 61, (2E)-N-[3-(iminobenzylamino)-2-fluorophenyl]-3-[2-(trifluoromethyl)phenyl]-2-propenamide]	185 to 187
N=C(Nc1ccc(F)c(NC(=O)/C=C/c2ccccc2C(F)(F)F)c1)c1cccs1 [Example 62, (2E)-N-[2-fluoro-5-[[imino(2-thienyl)methyl]amino]phenyl]-3-[2-(trifluoromethyl)phenyl]-2-propenamide]	208 to 209
Cc1ncccc1Oc1ccc(C(=N)Nc2cc(Cl)cc(NC(=O)C=Cc3ccccc3C(F)(F)F)c2)cc1 [Example 64, N-[3-chloro-5-[[imino[4-[(2-methyl-3-pyridyl)oxy]phenyl]methyl]amino]phenyl]-3-[2-(trifluoromethyl)phenyl]-2-propenamide]	114 to 119
N#Cc1ccccc1/C=C/C(=O)Nc1cc(Cl)cc(NC(=N)c2ccccc2)c1 [Example 67, (2E)-N-[3-chloro-5-(iminobenzylamino)phenyl]-3-(2-cyanophenyl)-2-propenamide]	220 to 221
N=C(Nc1cc(F)cc(NC(=O)/C=C/c2ccccc2C(F)(F)F)c1)c1ccccc1 [Example 137, (2E)-N-[3-fluoro-5-(iminobenzylamino)phenyl]-3-(2-trifluoromethylphenyl)-2-propenamide]	103 to 105
N=C(Nc1cc(Cl)cc(NC(=O)/C=C/c2ccccc2F)c1)c1ccccc1 [Example 138, (2E)-N-[3-chloro-5-(iminobenzylamino)phenyl]-3-(2-fluorophenyl)-2-propenamide]	186 to 187
Cc1ccc(NC(=N)c2ccccc2)cc1NC(=O)/C=C/c1ccccc1C(F)(F)F [Example 139, (2E)-N-[5 (iminobenzylamino)-2-methylphenyl]-3-(2-trifluoromethylphenyl)-2-propenamide]	220 to 222
COc1ccc(NC(=N)c2ccccc2)cc1NC(=O)/C=C/c1ccccc1C(F)(F)F [Example 140, (2E)-N-[5-(iminobenzylamino)-2-methoxyphenyl]-3-(2-trifluoromethylphenyl)-2-propenamide]	208 to 210
N=C(Nc1ccc(Cl)c(NC(=O)/C=C/c2ccccc2C(F)(F)F)c1)c1ccccc1 [Example 141, (2E)-N-[2-chloro-5-(iminobenzylamino)phenyl]-3-(2-trifluoromethylphenyl)-2-propenamide]	198 to 199
N=C(Nc1cc(Cl)cc(NC(=O)/C=C/c2ccccc2Br)c1)c1ccccc1 [Example 142, (2E)-N-[3-chloro-5-(iminobenzylamino)phenyl]-3-(2-bromophenyl)-2-propenamide]	99 to 101
Cc1ccc(NC(=O)/C=C/c2ccccc2C(F)(F)F)cc1NC(=N)c1ccccc1 [Example 143, (2E)-N-[3-(iminobenzylamino)-4-methylphenyl]-3-(2-trifluoromethylphenyl)-2-propenamide]	112 to 116
COc1ccc(NC(=O)/C=C/c2ccccc2C(F)(F)F)cc1NC(=N)c1ccccc1 [Example 144, (2E)-N-[3-(iminobenzylamino)-4-methoxyphenyl]-3-(2-trifluoromethylphenyl)-2-propenamide]	213 to 214
N=C(Nc1cc(NC(=O)/C=C/c2ccccc2C(F)(F)F)ccc1Cl)c1ccccc1 [Example 145, (2E)-N-[4-chloro-3-(iminobenzylamino)phenyl]-3-(2-trifluoromethylphenyl)-2-propenamide]	188 to 189
CS(=O)(=O)Nc1cc(NC(=N)c2ccccc2)cc(NC(=O)/C=C/c2ccccc2C(F)(F)F)c1 [Example 146, (2E)-N-[3 (iminobenzylamino)-5-(methylsulfonylamino)phenyl]-3-(2-trifluoromethylphenyl)-2-propenamide]	150 to 155
CS(=O)(=O)Nc1ccc(C(=N)Nc2cc(Cl)cc(NC(=O)/C=C/c3ccccc3Cl)c2)cc1 [Example 147, (2E)-N-[3-chloro-5-[imino(4-methylsulfonylaminobenzyl)amino]phenyl]-3-(2-chlorophenyl)-2-propenamide]	158 to 160
N=C(Nc1cc(Cl)cc(NC(=O)/C=C/c2ccccc2C(F)(F)F)c1)c1ccccc1F [Example 148, (2E)-N-[3-chloro-5-[imino(2-fluorobenzyl)amino]phenyl]-3-(2-trifluoromethylphenyl)-2-propenamide]	209 to 210
CC(=O)Nc1ccc(C(=N)Nc2cc(NC(=O)/C=C/c3ccccc3C(F)(F)F)c(F)cc2F)cc1 [Example 152, (2E)-N-[2,4-difluoro-5-[imino(4-acetylaminobenzyl)amino]phenyl]-3-(2-trifluoromethylphenyl)-2-propenamide]	180 to 185
N=C(Nc1cc(Cl)c(Cl)c(NC(=O)/C=C/c2ccccc2C(F)(F)F)c1)c1ccccc1 [Example 154, (2E)-N-[2,3-dichloro-5-(iminobenzylamino)phenyl]-3-(2-trifluoromethylphenyl)-2-propenamide]	213 to 214
O=C(C=Cc1ccccc1Cl)Nc1cc(Cl)cc(Nc2noc3ccccc23)c1 [Example 186, N-[3-(1,2-benzisoxazol-3-ylamino)-5-chlorophenyl]-2-chlorocinnamamide]	133 to 135
N=C(Nc1cc(Cl)cc(NC(=O)/C=C/c2c[nH]c3ccccc23)c1)c1ccccc1 [Example 205, (2E)-N-[3-chloro-5-[[imino(phenyl)methyl]amino]phenyl]-3-(1H-indole-3-yl)-2-propenamide]	184 to 187
